Test results as given in US6444821B1, “Crystals of piperidine derivatives, intermediates for production of the same, and process for producing the same” (Ajinomoto Co., Inc., priority 1995, dated 2002).
Structures can show the parent of a compound that is named as a salt.

How the values were obtained:
[1] = Oral bioavailability in Beagle dog (plasma AUC oral vs intravenous); assay type: in vivo; details: 3.0 mg/kg, plasma sampled 30 minutes to 24 hours
Protocol: Each of the monohydrate and trihydrate crystals of Compound (I) produced in Examples 4 and 6 was orally administered to a Beagle dog at a dose of 3.0 mg/kg. After 30 minutes, 1 hour, 2 hours, 3 hours, 4 hours, 6 hours, 8 hours and 24 hours of the administration, the blood was collected, the concentration of Compound (I) in the plasma was measured, and the area under plasma concentration curve (AUC) was obtained.

[2] = Storage stability of crystals; assay type: physicochemical; details: storage for 1 month
Excerpt: Still further, the monohydrate and trihydrate crystals of the present invention can be easily produced from α-type anhydride crystals and β-type anhydride crystals.

[3] = Dissolution rate in gastric juice model solution (JP-1 solution); assay type: physicochemical; details: 20 mg crystals in 500 ml JP-1 solution, 37° C., FIG. 9
Protocol: Each 20 mg of the monohydrate and trihydrate crystals of Compound (I) produced in Examples 4 and 6 was added to 500 ml of a gastric juice model solution (JP-1 solution according to Japan Pharmacopeia) of 37° C., and the concentration of Compound (I) in the solution was measured over the course of time.

For `O=CN1CCC(C(=O)NCCN2CCC(=C3c4ccccc4C=Cc4ccccc43)CC2)CC1` [monohydrate crystals, N-(2-(4-(5H-dibenzo(a,d)cyclohepten-5-ylidene)-piperidino)ethyl)-1-formyl-4-piperidinecarboxamide hydrochloride monohydrate], the “bioavailability (ratio of the AUC value of oral administration to that of intravenous administration)” value ([1]; hydrochloride monohydrate) was 73.4% and the “stability (chemical and physical) on storage” value [2] was “unchanged even after storage for 1 month”.
For `O=CN1CCC(C(=O)NCCN2CCC(=C3c4ccccc4C=Cc4ccccc43)CC2)CC1` [trihydrate crystals, N-(2-(4-(5H-dibenzo[a,d]cyclohepten-5-ylidene)-piperidino)ethyl)-1-formyl-4-piperidinecarboxamide hydrochloride trihydrate], the dissolution rate [3] was “high dissolution rate compared to the monohydrate crystals” and the “bioavailability (ratio of the AUC value of oral administration to that of intravenous administration)” value ([1]; hydrochloride trihydrate) was 49.6%.
